The results in this text go back to US9371353B2, “Oligonucleotide with protected base” (Ajinomoto Co., Inc., priority 2012, dated 2016).

Structures are written as SMILES.

A short description of this data set: Solubility test of nucleoside with protected 3′-hydroxyl group. It counts as physicochemical. As for the experimental part: The solubility (=solute/(solvent+solute)×100) (mass %) at 20° C., shown in the following Table 2, of the compound representing the present invention, thymidine wherein the 5′-hydroxyl group is protected by dimethoxytrityl group, and the 3′-hydroxyl group is protected by the branched chain-containing aromatic protecting group (Example 2), and thymidine wherein the 5′-hydroxyl group is protected by dimethoxytrityl group, and the 3′-hydroxyl group is protected by the corresponding group containing the straight chain structure (Comparative Example 2) as a comparison target thereof was measured.
[Solubility Measurement Method]
• 1) A solute (100 parts by mass) was added to a solvent (100 parts by mass) to saturation at 20° C. • 2) When the solute remained by visual observation, the supernatant was quantitatively analyzed under the following HPLC conditions, and the concentration was determined and taken as the solubility (=solute/(solvent+solute)×100)(mass %). • 3) When the solute was absent by visual observation, the solubility was >50 mass %. • [HPLC Analysis Conditions] • use instrument: Hitachi high performance liquid chromatography LaChrom Elite L-2000 series • column: YMC-PACK 5 μm 150×4.6 mm • column temperature: 40° C. • eluent: THF/CH3CN/H2O • flow rate: 1.0 ml/min

The mark [1] stands for this setting: heptane/toluene/acetonitrile = 1/1/1, 20° C.

Regarding `COc1ccc(C(OCC2OC(n3cc(C)c(=O)[nH]c3=O)C[C@H]2OC(=O)CCC(=O)NCc2cc(OCCC(C)CCCC(C)CCCC(C)CCCC(C)C)c(OCCC(C)CCCC(C)CCCC(C)CCCC(C)C)c(OCCC(C)CCCC(C)CCCC(C)CCCC(C)C)c2)(c2ccccc2)c2ccc(OC)cc2)cc1` (stereo partly drawn) [Example 2, 5′-O-(4,4′-dimethoxytrityl)-2′-deoxythymidin-3′-yl-N-[3,4,5-tris(3,7,11,15-tetramethyl-1-hexadecanyloxy)benzyl]succinamate], the “solubility (=solute/(solvent+solute)×100)” value reads like this: (heptane, 20° C.) more than 50% by mass; (heptane/toluene = 1/1, 20° C.) more than 50% by mass; under setting [1], more than 50% by mass.

With `CCCCCCCCCCCCCCCCCCOc1cc(CNC(=O)CCC(=O)OC2CC(n3cc(C)c(=O)[nH]c3=O)OC2COC(c2ccccc2)(c2ccc(OC)cc2)c2ccc(OC)cc2)cc(OCCCCCCCCCCCCCCCCCC)c1OCCCCCCCCCCCCCCCCCC` (stereo not drawn) [Comparative Example 2, 5′-O-(4,4′-dimethoxytrityl)-2′-deoxythymidin-3′-yl-N-(3,4,5-tris(octadecyloxy)benzyl)succinamate], the “solubility (=solute/(solvent+solute)×100)” value by setting is: (heptane, 20° C.) 0% by mass; (heptane/toluene = 1/1, 20° C.) 22.3% by mass; under setting [1], 13.7% by mass.
